Laboratory results as given in ChEMBL document CHEMBL4418495, “Entpd5 inhibitors” (2012).
The source made the active and inactive calls.

How the values were obtained:
LNCaP [1] = test: Antitumor activity against human LNCAP cells xenografted in mouse assessed as reduction in cells left in matrigels at 1 to 100 mg/kg, ip dosed every other day and measured after 6 weeks by hematoxylin and eosin staining based microscopy; assay type: functional, organism-based
[2] = target: T1, Uridylate kinase (Escherichia coli (strain K12)) (UniProt P0A7E9); test: Inhibition of recombinant Escherichia coli UMP kinase pyrH catalyzed UMP phosphorylation in presence of GTP and ATP incubated for 1 hr by luminescence based assay
T1 sequence (whole entry): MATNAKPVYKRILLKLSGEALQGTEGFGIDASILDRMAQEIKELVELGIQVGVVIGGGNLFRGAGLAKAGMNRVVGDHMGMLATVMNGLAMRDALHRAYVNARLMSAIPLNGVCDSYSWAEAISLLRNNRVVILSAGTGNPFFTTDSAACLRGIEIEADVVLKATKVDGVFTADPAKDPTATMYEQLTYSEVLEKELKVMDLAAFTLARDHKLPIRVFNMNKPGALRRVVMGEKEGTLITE

LNCaP [3] = test: Antitumor activity against human LNCAP cells xenografted in mouse assessed as induction of tumor shrinkage at 1 to 100 mg/kg, ip dosed every other day and measured after 6 weeks by microscopy; assay type: functional, organism-based
[4] = target: T2, Nucleoside diphosphate phosphatase ENTPD5 (Homo sapiens) (UniProt O75356); test: Inhibition of human recombinant ENTPD5 expressed in insect cells assessed as reduction in UDP hydrolysis up to 10 uM incubated for 1 hr in presence of UMP, GTP and ATP by Escherichia coli UMP kinase pyrH catalyzed UMP phosphorylation coupled luciferase assay
T2 sequence (whole entry): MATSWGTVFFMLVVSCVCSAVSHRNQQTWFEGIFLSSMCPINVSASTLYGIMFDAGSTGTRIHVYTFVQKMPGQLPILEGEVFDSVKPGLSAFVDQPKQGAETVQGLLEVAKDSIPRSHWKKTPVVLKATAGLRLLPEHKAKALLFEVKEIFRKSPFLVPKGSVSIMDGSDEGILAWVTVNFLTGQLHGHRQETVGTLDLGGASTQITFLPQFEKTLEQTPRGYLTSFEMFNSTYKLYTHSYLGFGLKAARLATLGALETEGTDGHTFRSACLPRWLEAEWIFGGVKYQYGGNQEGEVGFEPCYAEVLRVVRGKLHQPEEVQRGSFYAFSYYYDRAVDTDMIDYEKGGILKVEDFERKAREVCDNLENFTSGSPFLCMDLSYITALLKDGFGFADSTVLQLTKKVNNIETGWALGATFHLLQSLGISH

[5] = target: T3, Ectonucleoside triphosphate diphosphohydrolase 5 (Mus musculus) (UniProt Q9WUZ9); test: Inhibition of ENTPD5 in PTEN knockout mouse MEF cells assessed as induction of ER stress by measuring increase in GRP78/BiP expression at 30 uM incubated for 24 hrs by Western blotting analysis; assay type: cell-based
T3 sequence (whole entry): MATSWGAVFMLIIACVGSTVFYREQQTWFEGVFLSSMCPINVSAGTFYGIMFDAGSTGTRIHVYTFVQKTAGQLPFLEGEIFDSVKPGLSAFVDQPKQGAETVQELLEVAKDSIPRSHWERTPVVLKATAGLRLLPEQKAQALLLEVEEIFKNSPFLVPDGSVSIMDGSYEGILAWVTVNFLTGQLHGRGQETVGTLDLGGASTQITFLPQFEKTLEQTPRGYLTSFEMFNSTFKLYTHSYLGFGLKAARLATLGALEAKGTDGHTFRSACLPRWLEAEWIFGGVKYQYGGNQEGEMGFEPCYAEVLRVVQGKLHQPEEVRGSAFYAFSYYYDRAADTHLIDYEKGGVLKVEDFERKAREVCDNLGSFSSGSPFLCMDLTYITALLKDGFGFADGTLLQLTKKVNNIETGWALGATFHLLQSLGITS

[6] = target: T2, Nucleoside diphosphate phosphatase ENTPD5 (Homo sapiens); test: Inhibition of human recombinant ENTPD5 expressed in insect cells assessed as reduction in reduction in UDP hydrolysis by measuring inorganic phosphate release incubated for 1 hr by malachite green based assay
[7] = target: T3, Ectonucleoside triphosphate diphosphohydrolase 5 (Mus musculus); test: Inhibition of ENTPD5 in PTEN knockout mouse MEF cells assessed as induction of ER stress by measuring increase in EGF receptor degradation incubated for 24 hrs by Western blotting analysis; assay type: cell-based
[8] = target: T2, Nucleoside diphosphate phosphatase ENTPD5 (Homo sapiens); test: Inhibition of human recombinant ENTPD5 expressed in insect cells assessed as reduction in UDP hydrolysis at 1 uM incubated for 1 hr in presence of UMP, GTP and ATP by Escherichia coli UMP kinase pyrH catalyzed UMP phosphorylation coupled luciferase assay
[9] = target: T3, Ectonucleoside triphosphate diphosphohydrolase 5 (Mus musculus); test: Inhibition of ENTPD5 in PTEN knockout mouse MEF cells assessed as induction of ER stress by measuring increase in GRP78/BiP expression incubated for 24 hrs by Western blotting analysis; assay type: cell-based
[10] = target: T4, Nucleoside diphosphate phosphatase ENTPD5 (Homo sapiens, UniProt O75356); test: Inhibition of human recombinant ENTPD5 expressed in insect cells assessed as reduction in UDP hydrolysis incubated for 1 hr in presence of UMP, GTP and ATP by Escherichia coli UMP kinase pyrH catalyzed UMP phosphorylation coupled luciferase assay
T4 sequence (O75356 whole entry): T2 sequence (whole entry)

MEF = test: Toxicity in PTEN knockout mouse MEF cells assessed as reduction in cell viability at 30 uM incubated for 24 hrs; assay type: cell-based

SMILES | inhibition [2] | inhibition [4] | inhibition [5] | inhibition [6] | inhibition [7] | inhibition [8] | inhibition [9] | Activity (LNCaP [1]) | Activity (LNCaP [3]) | IC50 [10] [µM] | also measured
COc1ccc(-n2cccc2/C=C2\C(=O)NC(=S)N(c3cccc(Br)c3)C2=O)cc1 | inactive | Dose-dependent effect | Active | Active | Dose-dependent effect | Active | Dose-dependent effect | Active | Active |  | 
C[C@H]1CC[C@H]2C(C)(C)CCC[C@]23Oc2ccc(O)cc2C[C@]13C [AUREOL] |  |  |  |  |  |  |  |  |  | 15 to 20 | Activity (MEF): Toxic
CCOc1ccc(N2C(=O)/C(=C/c3cccn3-c3ccc(Br)cc3)C(=O)NC2=S)c(F)c1 | inactive | Dose-dependent effect | Active | Active | Dose-dependent effect | Active | Dose-dependent effect | Active | Active |  | 
CC1(C)CCC[C@]2(C)[C@H]3Cc4cc(O)ccc4O[C@]3(C)CC[C@@H]12 |  |  |  |  |  |  |  |  |  | 10 | 
C[C@H]1CC[C@@H]2C(CCCC2(C)C)[C@]1(C)c1cc(O)ccc1O (stereo partly drawn) |  |  |  |  |  |  |  |  |  | 30 | 
C[C@H]1CC[C@]2(C)C(CCCC2(C)C)[C@]1(C)c1cc(O)ccc1O (stereo partly drawn) |  |  |  |  |  |  |  |  |  | 30 | 
